Laboratory results: US20090137499A1, “BENZYLPHENYL GLUCOPYRANOSIDE DERIVATIVE” (priority 2006, published 2009)

Target: T1, human SGLT1 (Homo sapiens, UniProt P13866)
T1 construct: expressed in transfected cells
T1 sequence (P13866 1-664): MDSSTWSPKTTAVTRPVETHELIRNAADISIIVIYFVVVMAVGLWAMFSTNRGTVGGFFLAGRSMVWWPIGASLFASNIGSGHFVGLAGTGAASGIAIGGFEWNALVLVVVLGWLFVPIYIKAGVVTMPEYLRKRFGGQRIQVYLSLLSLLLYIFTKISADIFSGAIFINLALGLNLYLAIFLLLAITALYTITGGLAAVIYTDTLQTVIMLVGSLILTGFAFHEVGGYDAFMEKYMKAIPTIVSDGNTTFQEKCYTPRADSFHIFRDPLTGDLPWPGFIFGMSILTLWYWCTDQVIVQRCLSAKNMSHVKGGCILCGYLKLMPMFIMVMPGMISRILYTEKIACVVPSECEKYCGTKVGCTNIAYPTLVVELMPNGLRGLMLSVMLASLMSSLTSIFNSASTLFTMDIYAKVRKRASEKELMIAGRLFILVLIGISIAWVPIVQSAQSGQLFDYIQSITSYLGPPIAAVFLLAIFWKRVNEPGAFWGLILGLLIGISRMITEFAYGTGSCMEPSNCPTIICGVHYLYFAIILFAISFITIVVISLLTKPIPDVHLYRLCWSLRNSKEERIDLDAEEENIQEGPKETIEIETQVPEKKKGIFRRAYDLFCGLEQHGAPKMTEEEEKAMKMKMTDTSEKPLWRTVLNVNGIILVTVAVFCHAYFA
Experiment: Determination of SGLT1 inhibiting activity using human SGLT1 expressing cell ([14C]-α-methyl-D-glucopyranoside uptake)
Format: cell-based
Conditions: HEK-SGLT1 cells, 1 mM [14C]-α-methyl-D-glucopyranoside, 37° C., 30 min
Description: Determination of SGLT1 Inhibiting Activity Using Human SGLT1 Expressing Cell
1) Preparation of Vector Expressing Human SGLT1 cDNA in Animal Cell
Amplification was performed by PCR using human SGLT1 cDNA clone (Origene: Clone Number, TC119918; GenBank accession number, NM 000343) as a template. The sense oligonucleotide primer for PCR was 5′-[…]-3′ (Primer 1: SEQ ID NO: 1 in the sequence listing),
and the antisense oligonucleotide primer was 5′-[…]-3′ (Primer 2: SEQ ID NO: 2 in the sequence listing).
The PCR product was subjected to agarose electrophoresis, then a target DNA fragment was recovered from a single band corresponding to 2013 bases, digested with restriction enzymes HindIII and XhoI, and introduced into the HindIII/XhoI site of vector pCMV-Script (Stratagene) to obtain SGLT1 expressing plasmid pCMV-SGLT1. A HindIII/XhoI fragment was excised from pCMV-SGLT1 and introduced into the BamHI/XhoI site of pENTR1A (Gateway, Invitrogen) to prepare pENTR-SGLT1. Retrovirus vector pLPCX (Clontech) into which Gateway Vector Conversion System Cassette A (Invitrogen) was introduced was used as the destination plasmid to prepare SGLT1 expressing retrovirus vector pLPCX-SGLT1.
2) Establishment of Human SGLT1 Expressing Cell
The retrovirus pLPCX-SGLT1 obtained in 1) was transfected into integrin αvβ3 expressing HEK-293 cells and, the cells were treated with antibiotic G418 (brand name, Geneticin: Invitrogen) and puromycin (Clontech) to obtain HEK-SGLT1 cells stably expressing the target vector having resistance. The stably expressing cells were cultured and maintained in DMEM medium containing […] G418, […] puromycin, 3 mM KGT-1075, and 10% FBS.
3) Determination of SGLT1 Inhibiting Activity
HEK-SGLT1 cells were suspended at a density of 10^6 cells/mL in DMEM medium containing […] G418, 1 mg/ml puromycin, and 10% FBS, and 100 μL was seeded in each well of a type 1 collagen-coated 96-well culture plate (Corning). On the following day, the medium was replaced with a sugar uptake buffer (10 mM HEPES [pH 7.5], 5 mM Tris-HCl [pH 7.5], 140 mM NaCl, 2 mM KCl, 1 mM CaCl2, 1 mM MgCl2), and the cells were cultured with 1 mM [^14C]-α-methyl-D-glucopyranoside (0.1 mCi) and the test compound at 37° C. for 30 min and then washed 3 times with a washing buffer (10 mM HEPES [pH 7.5], 5 mM Tris-HCl [pH 7.5], 140 mM choline chloride, 2 mM KCl, 1 mM CaCl2, 1 mM MgCl2). 100 μL of liquid scintillation cocktail (brand name, Supermix: Perkin-Elmer) was added to each well of the 96-well plate and stirred for 10 min, and then radioactivity was determined with micro β (Perkin-Elmer), a type of liquid scintillation counter. The value as the sugar uptake activity was obtained by deducting the radioactivity in the presence of an excess amount of an SGLT1 inhibiting compound as the background from each measured value, the inhibition rate (%) was calculated from the control sugar uptake activity obtained without using a test compound and the sugar uptake activity obtained using a test compound having a predetermined the concentration, and concentrations of the test compound at which the sugar uptake activity was inhibited by 50% were assessed.

SMILES	IC50
CSc1ccc(Cc2ccc(CO)cc2O[C@@H]2O[C@H]([C@@H](C)O)[C@@H](O)[C@H](O)[C@H]2O)cc1 [Example 66, 5-Hydroxymethyl-2-(4-methylsulfanylbenzyl)phenyl 7-deoxy-D-glycero-β-D-gluco-heptopyranoside]	214 nM
COc1ccc(Cc2c(C)cc(C)cc2O[C@@H]2O[C@H]([C@@H](C)O)[C@@H](O)[C@H](O)[C@H]2O)cc1F [Example 69, 2-(3-Fluoro-4-methoxybenzyl)-3,5-dimethylphenyl 7-deoxy-D-glycero-β-D-gluco-heptopyranoside]	231 nM
C[C@@H](O)[C@H]1O[C@@H](Oc2cc(CO)ccc2Cc2ccc(CCCO)cc2)[C@H](O)[C@@H](O)[C@@H]1O [Example 68, 5-Hydroxymethyl-2-[4-(3-hydroxypropyl)benzyl]phenyl 7-deoxy-D-glycero-β-D-gluco-heptopyranoside]	123 nM
COc1ccc(Cc2c(Cl)cc(CO)cc2O[C@@H]2O[C@H]([C@@H](C)O)[C@@H](O)[C@H](O)[C@H]2O)cc1 [Example 44, 3-Chloro-5-hydroxymethyl-2-(4-methoxybenzyl)phenyl 7-deoxy-D-glycero-β-D-gluco-heptopyranoside]	29 nM
CCOc1ccc(Cc2c(F)cc(CO)cc2O[C@@H]2O[C@H]([C@@H](C)O)[C@@H](O)[C@H](O)[C@H]2O)cc1 [Example 46, 2-(4-Ethoxybenzyl)-3-fluoro-5-hydroxymethyl-phenyl 7-deoxy-D-glycero-β-D-gluco-heptopyranoside]	56 nM
CC(C)Oc1ccc(Cc2c(F)cc(CO)cc2O[C@@H]2O[C@H]([C@@H](C)O)[C@@H](O)[C@H](O)[C@H]2O)cc1 [Example 75, 3-Fluoro-5-hydroxymethyl-2-(4-isopropoxybenzyl)phenyl 7-deoxy-D-glycero-β-D-gluco-heptopyranoside]	269 nM
C[C@@H](O)[C@H]1O[C@@H](Oc2cc(CO)ccc2Cc2ccc(C3CC3)cc2)[C@H](O)[C@@H](O)[C@@H]1O [Example 62, 2-(4-Cyclopropylbenzyl)-5-hydroxymethylphenyl 7-deoxy-D-glycero-β-D-gluco-heptopyranoside]	155 nM
Cc1cc(C)c(Cc2ccc(CCO)cc2)c(O[C@@H]2O[C@H]([C@@H](C)O)[C@@H](O)[C@H](O)[C@H]2O)c1 [Example 70, 2-[4-(2-Hydroxyethyl)benzyl]-3,5-dimethylphenyl 7-deoxy-D-glycero-β-D-gluco-heptopyranoside]	199 nM
C[C@@H](O)[C@H]1O[C@@H](Oc2cc(CO)ccc2Cc2ccc(OC3CC3)cc2)[C@H](O)[C@@H](O)[C@@H]1O [Example 60, 2-(4-Cyclopropyloxybenzyl)-5-hydroxymethylphenyl 7-deoxy-D-glycero-β-D-gluco-heptopyranoside]	81 nM
COc1ccc(Cc2c(F)cc(CO)cc2O[C@@H]2O[C@H]([C@@H](C)O)[C@@H](O)[C@H](O)[C@H]2O)cc1 [Example 84, 3-Fluoro-5-hydroxymethyl-2-(4-methoxybenzyl)phenyl 7-deoxy-D-glycero-β-D-gluco-heptopyranoside]	31 nM
C[C@@H](O)[C@H]1O[C@@H](Oc2cc(CO)cc(Cl)c2Cc2ccc(OC3CC3)cc2)[C@H](O)[C@@H](O)[C@@H]1O [Example 95, 3-Chloro-2-(4-cyclopropoxybenzyl)-5-hydroxymethyl-phenyl 7-deoxy-D-glycero-β-D-gluco-heptopyranoside]	82 nM
